Measurements as given in US9212202B2, “Methods of peptide modification” (Lytix Biopharma AS, priority 2007, dated 2015).
≈ marks a conversion by molar mass, not a printed value. Peptide text beside a SMILES is read from it. * marks the point of attachment. NHPhenethyl = c1ccc(CCN*)cc1; NHBn = c1ccc(CN*)cc1

Columns and labels:
[1] = biological target: trypsin (Bos taurus, UniProt P00760); experiment: in vitro; conditions: bovine, isolated trypsin from bovine pancreas, pH 8.6
Procedure: Essentially salt-free trypsin from bovine pancreas, (T8802, 10000-15000 BAEE units/mg protein) was supplied by Sigma-Aldrich.
Each peptide was dissolved in a 0.1 M NH4HCO3 buffer (pH 6.5) to yield a final peptide concentration of 1 mg/ml. A trypsin solution was prepared by dissolving 1 mg of trypsin in 50 ml 0.1 M NH4HCO3 buffer (pH 8.2). For the stability determination, 250 μl freshly made trypsin solution and 250 μl peptide solution were incubated in 2 ml of 0.1 M NH4HCO3 buffer (pH 8.6) at 37° C. on a rocking table. Aliquots of 0.5 ml were sampled at different time intervals, diluted with 0.5 ml water:acetonitrile (60:40 v/v) containing 1% TFA and analysed by RP-HPLC as described above. Samples without trypsin addition taken at 0 h and after 20 h at 37° C. were used as negative controls. […] The plotted kinetic profiles were made on GraphPad Prism 4c.
The identity of the metabolites from the tryptic degradation was either determined by preparative trypsin degradation of the peptide, purification and structural determination by ESMS, or by chemical synthesis of authentic reference samples.

[2] = test system: Str. pyogenes; experiment: Minimal inhibitory concentration; type: cell-based
Procedure: (§1) A further compound was prepared according to the methods of the invention and Minimal Inhibitory Concentration (MIC) values obtained against a range of bacteria. • H-Arg-Tbt-Arg-NH(CH2)2 (2-Br-phenyl) Saponification of Boc-Arg-Tbt-Arg-OMe
(§2) Minimal inhibitory concentration (mg/l),

[3] = test system: S. aureus; experiment: Minimal inhibitory concentration; type: cell-based
Procedure: as §1, §2

[4] = test system: MRSA; experiment: Minimal inhibitory concentration; type: cell-based
Procedure: as §1, §2

[5] = test system: E. coli; experiment: Minimal inhibitory concentration; type: cell-based
Procedure: as §1, §2

Chain of trypsin (P00760 24-246): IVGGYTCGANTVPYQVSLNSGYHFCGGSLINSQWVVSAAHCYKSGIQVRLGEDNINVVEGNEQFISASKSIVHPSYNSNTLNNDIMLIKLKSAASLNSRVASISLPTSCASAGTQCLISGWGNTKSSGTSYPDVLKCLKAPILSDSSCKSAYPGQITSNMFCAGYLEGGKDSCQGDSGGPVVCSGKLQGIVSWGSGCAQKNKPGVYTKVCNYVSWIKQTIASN

Row | SMILES | half-life at 0.1 mg/ml [1] [h] | Minimal inhibitory concentration [2] [µg/mL] | Minimal inhibitory concentration [3] [µg/mL] | Minimal inhibitory concentration [4] [µg/mL] | Minimal inhibitory concentration [5] [µg/mL]
1 | N=C(N)NCCC[C@H](NC(=O)[C@H](Cc1c[nH]c2ccccc12)NC(=O)[C@@H](N)CCCNC(=N)N)C(=O)NCc1ccccc1 [E] (H-Arg-Trp-Arg-NHBn) | 1 |  |  |  | 
2 | N=C(N)NCCC[C@H](NC(=O)[C@H](Cc1c[nH]c2ccccc12)NC(=O)[C@@H](N)CCCNC(=N)N)C(=O)NCCc1ccccc1 [F] (H-Arg-Trp-Arg-NHPhenethyl) | 7 |  |  |  | 
3 | CC(C)(C)c1cc(C(C)(C)C)c2[nH]c(C(C)(C)C)c(C[C@H](NC(=O)[C@@H](N)CCCNC(=N)N)C(=O)N[C@@H](CCCNC(=N)N)C(=O)NCCc3ccccc3Br)c2c1 [—(CH2)2-(2-BrPh), H-Arg-Tbt-Arg-NH(CH2)2 (2-Br-phenyl)] |  | 3 (≈ 3.46 µM) | 3 (≈ 3.46 µM) | 3 (≈ 3.46 µM) | 6 (≈ 6.92 µM)
